Source: PubChem BioAssay (NCI)
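Step 1: Grow cells in 96-well plates. Step 2: Expose to compound for 48 hours at 5 concentrations. Step 3: Interpolate endpoints linearly; if unreached, use highest concentration. GI50: concentration for 50% inhibition of growth. TGI: concentration producing complete growth inhibition.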

How the values were obtained:
Assay in all cases: NCI-60 cell line screen, 48 h
SK-MEL-28 melanoma = tested on: SK-MEL-28 melanoma
MOLT-4 leukemia = tested on: MOLT-4 leukemia
RPMI-8226 leukemia = tested on: RPMI-8226 leukemia
NCI/ADR-RES ovarian = tested on: NCI/ADR-RES ovarian
SK-OV-3 ovarian = tested on: SK-OV-3 ovarian
HS 578T breast = tested on: HS 578T breast
MCF7 breast = tested on: MCF7 breast
CCRF-CEM leukemia = tested on: CCRF-CEM leukemia
OVCAR-4 ovarian = tested on: OVCAR-4 ovarian
LOX IMVI melanoma = tested on: LOX IMVI melanoma
SN12C renal = tested on: SN12C renal
SR leukemia = tested on: SR leukemia
A549 NSCLC = tested on: A549 NSCLC
MDA-MB-435 = tested on: MDA-MB-435
HL-60(TB) leukemia = tested on: HL-60(TB) leukemia
SF-268 CNS = tested on: SF-268 CNS
NCI-H522 lung = tested on: NCI-H522 lung
BT-549 breast = tested on: BT-549 breast
U251 CNS = tested on: U251 CNS
786-0 renal = tested on: 786-0 renal
HCT-15 colon = tested on: HCT-15 colon
M14 melanoma = tested on: M14 melanoma
HCC-2998 colon = tested on: HCC-2998 colon
SW-620 colon = tested on: SW-620 colon
SNB-19 CNS = tested on: SNB-19 CNS
KM12 colon = tested on: KM12 colon
HCT-116 colon = tested on: HCT-116 colon
NCI-H23 lung = tested on: NCI-H23 lung
K-562 leukemia = tested on: K-562 leukemia
COLO 205 colon = tested on: COLO 205 colon
HOP-62 NSCLC = tested on: HOP-62 NSCLC
OVCAR-5 ovarian = tested on: OVCAR-5 ovarian
ACHN renal = tested on: ACHN renal
PC-3 prostate = tested on: PC-3 prostate
UACC-257 melanoma = tested on: UACC-257 melanoma
NCI-H460 lung = tested on: NCI-H460 lung
OVCAR-8 ovarian = tested on: OVCAR-8 ovarian
TK-10 renal = tested on: TK-10 renal
EKVX NSCLC = tested on: EKVX NSCLC
T-47D breast = tested on: T-47D breast
HT29 colon = tested on: HT29 colon
A498 renal = tested on: A498 renal
UACC-62 melanoma = tested on: UACC-62 melanoma
MALME-3M melanoma = tested on: MALME-3M melanoma
HOP-92 NSCLC = tested on: HOP-92 NSCLC
SF-295 CNS = tested on: SF-295 CNS
CAKI-1 renal = tested on: CAKI-1 renal
OVCAR-3 ovarian = tested on: OVCAR-3 ovarian
RXF 393 renal = tested on: RXF 393 renal
SF-539 CNS = tested on: SF-539 CNS
NCI-H226 lung = tested on: NCI-H226 lung
IGROV1 ovarian = tested on: IGROV1 ovarian
DU-145 prostate = tested on: DU-145 prostate
SK-MEL-5 melanoma = tested on: SK-MEL-5 melanoma

What does the source list for `NCCCC[C@@H]1NC(=O)[C@H](CC(=O)O)NC(=O)CNC(=O)[C@H](CCCN=C(N)N)NC(=O)[C@@H](N)CSSC[C@@H](C(=O)O)NC(=O)[C@H](CC(=O)O)NC(=O)[C@@H]2CCCN2C(=O)CNC1=O`?
GI50 (SK-MEL-28 melanoma): > 100 µM; TGI (SK-MEL-28 melanoma): > 100 µM; GI50 (MOLT-4 leukemia): > 100 µM; TGI (MOLT-4 leukemia): > 100 µM; GI50 (RPMI-8226 leukemia): > 100 µM; TGI (RPMI-8226 leukemia): > 100 µM; GI50 (NCI/ADR-RES ovarian): > 100 µM; TGI (NCI/ADR-RES ovarian): > 100 µM; GI50 (SK-OV-3 ovarian): > 100 µM; TGI (SK-OV-3 ovarian): > 100 µM; GI50 (HS 578T breast): > 100 µM; TGI (HS 578T breast): > 100 µM; GI50 (MCF7 breast): > 100 µM; TGI (MCF7 breast): > 100 µM; GI50 (CCRF-CEM leukemia): > 100 µM; TGI (CCRF-CEM leukemia): > 100 µM; GI50 (OVCAR-4 ovarian): > 100 µM; TGI (OVCAR-4 ovarian): > 100 µM; GI50 (LOX IMVI melanoma): > 100 µM; TGI (LOX IMVI melanoma): > 100 µM; GI50 (SN12C renal): > 100 µM; TGI (SN12C renal): > 100 µM; GI50 (SR leukemia): > 100 µM; TGI (SR leukemia): > 100 µM; GI50 (A549 NSCLC): > 100 µM; TGI (A549 NSCLC): > 100 µM; GI50 (MDA-MB-435): > 100 µM; TGI (MDA-MB-435): > 100 µM; GI50 (HL-60(TB) leukemia): > 100 µM; TGI (HL-60(TB) leukemia): > 100 µM; GI50 (SF-268 CNS): > 100 µM; TGI (SF-268 CNS): > 100 µM; GI50 (NCI-H522 lung): > 100 µM; TGI (NCI-H522 lung): > 100 µM; GI50 (BT-549 breast): > 100 µM; TGI (BT-549 breast): > 100 µM; GI50 (U251 CNS): > 100 µM; TGI (U251 CNS): > 100 µM; GI50 (786-0 renal): > 100 µM; TGI (786-0 renal): > 100 µM; GI50 (HCT-15 colon): > 100 µM; TGI (HCT-15 colon): > 100 µM; GI50 (M14 melanoma): > 100 µM; TGI (M14 melanoma): > 100 µM; GI50 (HCC-2998 colon): > 100 µM; TGI (HCC-2998 colon): > 100 µM; GI50 (SW-620 colon): > 100 µM; TGI (SW-620 colon): > 100 µM; GI50 (SNB-19 CNS): > 100 µM; TGI (SNB-19 CNS): > 100 µM; GI50 (KM12 colon): > 100 µM; TGI (KM12 colon): > 100 µM; GI50 (HCT-116 colon): > 100 µM; TGI (HCT-116 colon): > 100 µM; GI50 (NCI-H23 lung): > 100 µM; TGI (NCI-H23 lung): > 100 µM; GI50 (K-562 leukemia): > 100 µM; TGI (K-562 leukemia): > 100 µM; GI50 (COLO 205 colon): > 100 µM; TGI (COLO 205 colon): > 100 µM; GI50 (HOP-62 NSCLC): > 100 µM; TGI (HOP-62 NSCLC): > 100 µM; GI50 (OVCAR-5 ovarian): > 100 µM; TGI (OVCAR-5 ovarian): > 100 µM; GI50 (ACHN renal): > 100 µM; TGI (ACHN renal): > 100 µM; GI50 (PC-3 prostate): > 100 µM; TGI (PC-3 prostate): > 100 µM; GI50 (UACC-257 melanoma): > 100 µM; TGI (UACC-257 melanoma): > 100 µM; GI50 (NCI-H460 lung): > 100 µM; TGI (NCI-H460 lung): > 100 µM; GI50 (OVCAR-8 ovarian): > 100 µM; TGI (OVCAR-8 ovarian): > 100 µM; GI50 (TK-10 renal): > 100 µM; TGI (TK-10 renal): > 100 µM; GI50 (EKVX NSCLC): > 100 µM; TGI (EKVX NSCLC): > 100 µM; GI50 (T-47D breast): > 100 µM; TGI (T-47D breast): > 100 µM; GI50 (HT29 colon): > 100 µM; TGI (HT29 colon): > 100 µM; GI50 (A498 renal): > 100 µM; TGI (A498 renal): > 100 µM; GI50 (UACC-62 melanoma): > 100 µM; TGI (UACC-62 melanoma): > 100 µM; GI50 (MALME-3M melanoma): > 100 µM; TGI (MALME-3M melanoma): > 100 µM; GI50 (HOP-92 NSCLC): > 100 µM; TGI (HOP-92 NSCLC): > 100 µM; GI50 (SF-295 CNS): > 100 µM; TGI (SF-295 CNS): > 100 µM; GI50 (CAKI-1 renal): > 100 µM; TGI (CAKI-1 renal): > 100 µM; GI50 (OVCAR-3 ovarian): > 100 µM; TGI (OVCAR-3 ovarian): > 100 µM; GI50 (RXF 393 renal): > 100 µM; TGI (RXF 393 renal): > 100 µM; GI50 (SF-539 CNS): > 100 µM; TGI (SF-539 CNS): > 100 µM; GI50 (NCI-H226 lung): > 100 µM; TGI (NCI-H226 lung): > 100 µM; GI50 (IGROV1 ovarian): > 100 µM; TGI (IGROV1 ovarian): > 100 µM; GI50 (DU-145 prostate): > 100 µM; TGI (DU-145 prostate): > 100 µM; GI50 (SK-MEL-5 melanoma): > 100 µM; TGI (SK-MEL-5 melanoma): > 100 µM
